Usually IC50 stands for the midpoint of a concentration-inhibition curve.

From patent publication US7319086B1, “Method of prophylaxis and treatment and agents useful for same” (priority 1999, dated 2008) come the findings set out here.

Design in all cases: species or system P. gingivalis
Test [1] addresses binding of rHA2 or the gingipains (RgpA, Kgp) to hemin (Porphyromonas gingivalis, UniProt Q51816, A1188S/A1219P/Q1165E). Put plainly: solution-phase competition assay, hemin-coated wells. Particulars: read-out: IC50, inhibition of binding to hemin. Here is the method: (§1) Data are representative of two separate experiments. The absence of contaminating protein in a 90 μg protoporphyrin IX preparation was verified by SDS-PAGE and by Coomassie dye binding.
(§2) The IC50s for ligand binding in solution phase competition assays were determined. […] Hemoglobin was used as it was considered to represent the dominant form of porphyrin presentation in the pathological environment of chronic periodontitis.

Test [2] has as its target binding of rHA2 or the gingipains (RgpA, Kgp) to hemoglobin (Porphyromonas gingivalis, UniProt Q51816, A1188S/A1219P/Q1165E). Put plainly: solution-phase competition assay, hemoglobin-coated wells (rHA2 or gingipains). Particulars: preincubated 1 hr, read-out: IC50, inhibition of binding to hemoglobin. Here is the method:
as §1, §2

The next test has as its system rHA2. In words: directed porphyrin binding: porphyrins linked by carbodiimide to ethylene diamine-coated wells. Particulars: propionic acid groups linked to fixed amines, compared with non-derivatized porphyrin; 125 ng/ml rHA2. Here is the method:
Microtiter wells were coated with 100 mM ethylene diamine (pH 4.7) then incubated with 90 μg/ml hemin, protoporphyrin IX, or hematoporphyrin overnight in 50% dimethyl formamide in the presence (+) or absence (−) of 10 mM carbodiimide. Wells were washed 4 times with water then the amount of porphyrin bound to the wells was determined by absorbance at 414 nm (striped bars). […] Error bars represent standard deviation of absorbance measurements. Diagrams of chemical structures for hemin, protoporphyrin IX, and hematoporphyrin are presented adjacent to corresponding data.
The inventors reasoned, therefore, that blocking access to the acidic region of protoporphyrin molecules would have an effect on rHA2-binding and allow more specific characterization of binding between the HA2 domain and the porphyrin ring. Modifying the ligand binding assay system used above, surfaces were first coated with ethylene diamine to provide fixed, free, primary amines for carbodiimide linkage of carboxylic acid groups.

`C=CC1=C(C)c2cc3[nH]c(cc4nc(cc5[nH]c(cc1n2)c(C)c5CCC(=O)O)C(CCC(=O)O)=C4C)c(C)c3C=C` [protoporphyrin IX]: the IC50 was approximately 2.5 µM in test [1] and 10 ± 2 µM in test [2].
With hemin, the “rHA2-binding to carbodiimide-treated porphyrin” value in the test with rHA2 was “almost eliminated”.
